The text below walks through data of patent publication US20050197350A1, “Novel quinoline, tetrahydroquinazoline, and pyrimidine derivatives and methods of treatment related to the use thereof” (TAISHO PHARMACEUTICAL CO., LTD., priority 2003, published 2005).

Counter-ions that a name gives are not always drawn.

The target of the first test is MCH receptor (Homo sapiens, UniProt Q99705). Briefly: High throughput functional screening FLIPR/FDSS6000 (intracellular Ca2+ evoked by MCH). Format: cell-based. The conditions noted are these: FLIPR/FDSS, antagonist activity vs 50 nM MCH; class by percent of control at 10^−7 M or IC50; read-out: class. The gist of the method: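 For antagonist testing, compound-treated cells (30 min, 37 °C) were stimulated with 50 nM MCH and intracellular Ca2+ followed by Fluo4 fluorescence on FLIPR/FDSS6000. Receptor was a constitutively active, non-endogenous MCH receptor; dye loading 4 μM Fluo4-AM, 1 h, 37 °C.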
Regarding `Cc1cnc(N[C@H]2CC[C@@H](NC(=O)Nc3ccc(Cl)cc3)CC2)nc1N(C)C` [Example 3333, N-(4-chlorophenyl)-N′-(cis-4-{[4-(dimethylamino)-5-methylpyrimidin-2-yl]amino}cyclohexyl)urea], the IC50 lay in the range of 50 to 200 nM.

As to `CCN(C(=O)N[C@H]1CC[C@@H](Nc2ncc(C)c(N(C)C)n2)CC1)c1cccc(C)c1` [Example 3355, N′-(cis-4-{[4-(dimethylamino)-5-methylpyrimidin-2-yl]amino}cyclohexyl)-N-ethyl-N-(3-methylphenyl)urea], the IC50 was less than 50 nM. On the same count and under the same terms, next, `Cc1cnc(N[C@H]2CC[C@@H](NC(=O)c3cccnc3S(=O)(=O)c3cccc(C(F)(F)F)c3)CC2)nc1N(C)C` [Example 3287, N-(cis-4-{[4-(dimethylamino)-5-methylpyrimidin-2-yl]amino}cyclohexyl)-2-{[3-(trifluoromethyl)phenyl]sulfonyl}-nicotinamide]: 50 to 200 nM.

With `Cc1cc(N(C)C)nc(N[C@H]2CC[C@@H](NC(=O)c3cccnc3S(=O)(=O)c3cccc(Br)c3)CC2)n1` [Example 3373, 2-[(3-bromophenyl)sulfonyl]-N-(cis-4-{[4-(dimethylamino)-6-methylpyrimidin-2-yl]amino}cyclohexyl)nicotinamide], the IC50 lay within 50 to 200 nM. On to `Cc1cc(N(C)C)nc(N[C@H]2CC[C@@H](NC(=O)c3cccnc3S(=O)(=O)c3ccccc3C)CC2)n1` [Example 3375, N-(cis-4-{[4-(dimethylamino)-6-methylpyrimidin-2-yl]amino}cyclohexyl)-2-[(2-methylphenyl)sulfonyl]nicotinamide], for which the IC50 was 50 to 200 nM. On to `COc1ccc(NC(=O)N[C@H]2CC[C@@H](Nc3ncc(C)c(N(C)C)n3)CC2)cc1OC` [Example 3323, N-(3,4-dimethoxyphenyl)-N′-(cis-4-{[4-(dimethylamino)-5-methylpyrimidin-2-yl]amino}cyclohexyl)urea], for which the IC50 is less than 50 nM. For the molecule `Cc1cc(N(C)C)nc(N[C@H]2CC[C@@H](NC(=O)NC3(c4ccc(Cl)cc4)CC3)CC2)n1` [Example 3267, N-[1-(4-chlorophenyl)cyclopropyl]-N′-(cis-4-{[4-(dimethylamino)-6-methylpyrimidin-2-yl]amino}cyclohexyl)urea], the IC50 is less than 50 nM. Consider `Cc1cc(N[C@H]2CC[C@@H](C(=O)N[C@H](C)c3ccccc3F)CC2)nc2ccccc12` [Example 3311, cis-N-[(1R)-1-(2-fluorophenyl)ethyl]-4-[(4-methylquinolin-2-yl)amino]cyclohexanecarboxamide], for which the IC50 was more than 200 nM. As to `Cc1cnc(N[C@H]2CC[C@@H](NC(=O)Nc3cccc(Cl)c3Cl)CC2)nc1N(C)C` [Example 3343, N-(2,3-dichlorophenyl)-N′-(cis-4-{[4-(dimethylamino)-5-methylpyrimidin-2-yl]amino}cyclohexyl)urea], the IC50 is more than 200 nM. `Cc1cnc(N[C@H]2CC[C@@H](NC(=O)Nc3ccccc3OC(F)(F)F)CC2)nc1N(C)C` [Example 3330, N-(cis-4-{[4-(dimethylamino)-5-methylpyrimidin-2-yl]amino}cyclohexyl)-N′-[2-(trifluoromethoxy)phenyl]urea]: the IC50 is less than 50 nM. For the molecule `Cc1cnc(N[C@H]2CC[C@@H](NC(=O)Nc3ccc(Br)cc3)CC2)nc1N(C)C` [Example 3335, N-(4-bromophenyl)-N′-(cis-4-{[4-(dimethylamino)-5-methylpyrimidin-2-yl]amino}cyclohexyl)urea], the IC50 was less than 50 nM. Consider `Cc1cnc(N[C@H]2CC[C@@H](NC(=O)Nc3ccc(F)cc3)CC2)nc1N(C)C` [Example 3326, N-(cis-4-{[4-(dimethylamino)-5-methylpyrimidin-2-yl]amino}cyclohexyl)-N′-(4-fluorophenyl)urea], for which the IC50 is less than 50 nM.

With `Cc1cnc(N[C@H]2CC[C@@H](NC(=O)Nc3c(Cl)cccc3C(F)(F)F)CC2)nc1N(C)C` [Example 3344, N-[2-chloro-6-(trifluoromethyl)phenyl]-N′-(cis-4-{[4-(dimethylamino)-5-methylpyrimidin-2-yl]amino}cyclohexyl)urea], the IC50 was more than 200 nM.

The same test, now with this note: FLIPR/FDSS, antagonist activity vs 50 nM MCH; class by percent of control at 10^−7 M or IC50; table after the classification; read-out: class.
Consider `CN(C)c1nc(N[C@H]2CC[C@@H](NC(=O)c3ccc(F)c(Cl)c3)CC2)nc2c1CCCC2` [Example 3108, 3-Chloro-N-[cis-4-(4-dimethylamino-5,6,7,8-tetrahydro-quinazolin-2-ylamino)-cyclohexyl]-4-fluoro-benzamide hydrochloride], for which the IC50 was less than 50 nM. On to `NC(=O)c1cc(N[C@H]2CC[C@@H](NC(=O)c3ccc(F)c(F)c3)CC2)nc2ccccc12` [Example 3236, 2-(cis-4-{[1-(3,4-Difluoro-phenyl)-methanoyl]-amino}-cyclohexylamino)-quinoline-4-carboxylic acid amide], for which the IC50 is more than 200 nM. With `CN(C)c1ccnc(N[C@H]2CC[C@@H](NCc3ccc(Br)cc3OC(F)(F)F)CC2)n1` [Example 17, N^2-[cis-4-(4-Bromo-2-trifluoromethoxy-benzyl)-amino-cyclohexyl]-N^4,N^4-dimethyl-pyrimidin-2,4-diamine dihydrochloride], the IC50 lay within 50 to 200 nM. For the molecule `Cc1cc(N[C@H]2CC[C@@H](NC(=O)c3cccc(CO)c3)CC2)nc2ccccc12` [Example 3177, 3-Hydroxymethyl-N-[cis-4-(4-methyl-quinolin-2-ylamino)-cyclohexyl]-benzamide hydrochloride], the IC50 lay in the range of 50 to 200 nM.

In the case of `Cc1cc(N(C)C)nc(N[C@H]2CC[C@@H](NC(=O)c3ccc(Cl)c(F)c3)CC2)n1` [Example 3383, 4-Chloro-N-[cis-4-(4-dimethylamino6-methyl-pyrimidin-2-ylamino)-cyclohexyl]3-fluoro-benzamide hydrochloride], the IC50 is less than 50 nM.

For `CN(C)c1nc(N[C@H]2CC[C@@H](C(N)Cc3ccccc3OC(F)(F)F)CC2)nc2c1CCCC2` (relative stereo) [Example 16, N^4,N^4-Dimethyl-N^2-{cis-4-[(2-trifluoromethoxy-benzyl)-amino-methyl]-cyclohexyl}-5,6,7,8-tetrahydro-quinazoline-2,4-diamine dihydrochloride], the IC50 was less than 50 nM. In the case of `Cc1cc(N[C@H]2CC[C@@H](NC(=O)C(c3ccccc3)c3ccccc3)CC2)nc2ccccc12` [Example 3089, N-[cis-4-(4-Methyl-quinolin-2-ylamino)-cyclohexyl]-2,2-diphenyl-acetamide hydrochloride], the IC50 was less than 50 nM. For `Cc1cc(N[C@H]2CC[C@@H](NC(=O)c3ccncc3)CC2)nc2ccccc12` [Example 3183, N-[cis-4-(4-Methyl-quinolin-2-ylamino)-cyclohexyl]-isonicotinamide hydrochloride], the IC50 was more than 200 nM. As to `COc1cccc(OCC(=O)N[C@H]2CC[C@@H](Nc3nccc(N(C)C)n3)CC2)c1` [Example 3394, N-[cis-4-(4-Dimethylamino-pyrimidin-2-ylamino)-cyclohexyl]-2-(3-methoxy-phenoxy)-acetamide hydrochloride], the IC50 is less than 50 nM.

On to `Cc1cnc(N[C@H]2CC[C@@H](NC(=O)c3cc(F)c(F)c(F)c3)CC2)nc1N(C)C` [Example 3389, N-[cis-4-(4-Dimethylamino-5-methyl-pyrimidin-2-ylamino)-cyclohexyl]-3,4,5-trifluoro-benzamide hydrochloride], for which the IC50 was less than 50 nM. Turning to `CNc1cc(N[C@H]2CC[C@@H](CNCc3ccc(Br)cc3OC(F)(F)F)CC2)nc2ccccc12` [Example 3, N^2-{cis-4-[(4-Bromo-2-trifluoromethhxy-benzyl)-amino-methyl]-cyclohexyl}-N^4-methyl-quinoline-2,4-diamine dihydrochloride], the IC50 is less than 50 nM. Same read-out and setting: under `CN(C)c1nc(N[C@H]2CC[C@@H](CNC(=O)Nc3cccc(Cl)c3Cl)CC2)nc2c1CCCC2` [Example 3196, 1-(2,3-Dichloro-phenyl)-3-[cis-4-(4-dimethylamino-5,6,7,8-tetrahydro-quinazolin-2-ylamino)-cyclohexylmethyl]-urea hydrochloride] stands 50 to 200 nM; under `CCN(C)c1ccnc(N[C@H]2CC[C@@H](NC(=O)c3ccc(F)c(F)c3)CC2)n1` [Example 3226, N-{cis-4-[4-(Ethyl-methyl-amino)-pyrimidin-2-ylamino]-cyclohexyl}-3,4-difluoro-benzamide hydrochloride], more than 200 nM.

As for `O=C(N[C@H]1CC[C@@H](Nc2cc(Cl)c3ccccc3n2)CC1)c1cccnc1Oc1ccccc1` [Example 3115, N-[cis-4-(4-Chloro-quinolin-2-ylamino)-cyclohexyl]-2-phenoxy-nicotinamide hydrochloride], the IC50 is less than 50 nM. As to `COc1ccnc(N[C@H]2CC[C@@H](NC(=O)c3cccnc3Oc3ccccc3)CC2)n1` [Example 3134, N-[cis-4-(4-Methoxy-pyrimidin-2-ylamino)-cyclohexyl]-2-phenoxy-nicotinamide hydrochloride], the IC50 is more than 200 nM. With `Cc1cc(N[C@H]2CC[C@@H](NC(=O)c3ccc(Cl)cc3)CC2)nc2ccccc12` [Example 3172, 4-Chloro-N-[cis-4-(4-methyl-quinolin-2-ylamino)-cyclohexyl]-benzamide hydrochloride], the IC50 was less than 50 nM. Consider `COc1cccc(OCC(=O)N[C@H]2CC[C@@H](Nc3cc(C)c4ccccc4n3)CC2)c1` [Example 3098, 2-(3-Methoxy-phenoxy)-N-[cis-4-(4-methyl-quinolin-2-ylamino)-cyclohexyl]-acetamide hydrochloride], for which the IC50 is less than 50 nM.

The test is the same for the next values; noted with them: FLIPR/FDSS, antagonist activity vs 50 nM MCH; representative examples; read-out: IC50.
Consider `Cc1cnc(N[C@H]2CC[C@@H](NC(=O)c3ccc(F)c(F)c3)CC2)nc1N(C)C` [Example 2524, N-(cis-4-{[4-(Dimethylamino)-5-methylpyrimidin-2-yl]amino}cyclohexyl)-3,4-difluorobenzamide hydrochloride], for which the IC50 came to 2.1 nM.
